Test results published in the NIST ThermoML archive (doi:10.1016/j.jct.2013.05.024).

Experiment: excess molar enthalpy (molar enthalpy of mixing); xn = mol fraction of the nth substance listed
Settings: 101.3 kPa, Liquid, Isoperibol calorimetry

CCOC(=O)C(=O)OCC [diethyl ethanedioate] + CO
excess molar enthalpy [kcal/mol]
Settings	288.2 K	298.2 K	313.2 K	328.2 K
x1 = 0.0493	–	0.0523	0.06	0.0674
x1 = 0.0494	0.0464	–	–	–
x1 = 0.1004	–	0.101	0.12	0.139
x1 = 0.1005	0.0887	–	–	–
x1 = 0.1593	–	0.15	0.176	0.204
x1 = 0.2003	–	0.1771	0.2096	0.2407
x1 = 0.2004	0.156	–	–	–
x1 = 0.2505	–	0.207	0.2419	0.2789
x1 = 0.2507	0.1845	–	–	–
x1 = 0.299	–	0.2323	0.2725	0.3126
x1 = 0.2991	0.2072	–	–	–
x1 = 0.3509	–	0.2545	0.2978	0.3406
x1 = 0.3511	0.2259	–	–	–
x1 = 0.4017	–	0.2706	0.316	0.3616
x1 = 0.4019	0.2419	–	–	–
x1 = 0.4494	–	0.2823	0.3284	0.3731
x1 = 0.4496	0.2522	–	–	–
x1 = 0.4973	–	0.2909	0.3387	0.3843
x1 = 0.4975	0.261	–	–	–
x1 = 0.5507	–	0.2942	0.3399	0.3843
x1 = 0.5509	0.2658	–	–	–
x1 = 0.5967	–	0.2935	0.3377	0.3798
x1 = 0.5969	0.2651	–	–	–
x1 = 0.6473	–	0.2856	0.3274	0.3633
x1 = 0.6475	0.2605	–	–	–
x1 = 0.7032	–	0.2694	0.3112	0.3389
x1 = 0.7033	0.2467	–	–	–
x1 = 0.7468	–	0.2588	0.2911	0.3105
x1 = 0.7469	0.2333	–	–	–
x1 = 0.8037	–	0.238	0.2593	0.2641
x1 = 0.8039	0.2072	–	–	–
x1 = 0.8449	–	0.209	0.2285	0.2216
x1 = 0.845	0.18	–	–	–
x1 = 0.9004	–	0.152	0.156	0.147
x1 = 0.9005	0.127	–	–	–
x1 = 0.9484	0.0676	0.0887	0.0944	0.0844

CCOC(=O)C(=O)OCC [diethyl ethanedioate] + CC(C)O
excess molar enthalpy [kcal/mol]
Settings	288.2 K	298.2 K	313.2 K	328.2 K
x1 = 0.0492	0.124	0.131	0.14	0.145
x1 = 0.0997	0.225	0.247	0.269	0.287
x1 = 0.1514	0.3023	0.332	0.3647	0.3903
x1 = 0.2009	0.3566	0.3936	0.4376	0.4658
x1 = 0.2507	0.4092	0.4541	0.5005	0.5368
x1 = 0.3005	0.4379	0.4852	0.5394	0.5741
x1 = 0.3499	0.4682	0.517	0.5717	0.6092
x1 = 0.3987	0.4837	0.5344	0.5896	0.635
x1 = 0.4504	0.4962	0.5461	0.6052	0.6417
x1 = 0.501	0.4976	0.5447	0.6033	0.6405
x1 = 0.55	0.4995	0.5442	0.5942	0.6317
x1 = 0.6018	0.4876	0.5284	0.5772	0.6126
x1 = 0.6515	0.4696	0.5072	0.5485	0.5774
x1 = 0.6985	0.4419	0.4763	0.5143	0.5385
x1 = 0.7478	0.4046	0.4319	0.4673	0.4847
x1 = 0.7996	0.354	0.3762	0.3984	0.4166
x1 = 0.8479	0.2935	0.308	0.3279	0.3356
x1 = 0.8985	0.217	0.223	0.238	0.235
x1 = 0.9515	0.118	0.112	0.114	0.121
